# From patent publication US9963461B2, “Phillygenin ibuprofen ester, preparation method therefor, and application thereof” (priority 2014, dated 2018)
# Marks after values point to notes of the source that are not given here.
# What was measured:
# [1] = system: rat toe swelling induced by carrageenan; experiment: Rat toe swelling induced by carrageenan; type: in vivo, Wistar rats; conditions: 200 mg/kg sublingual intravenous injection
# Description: The test groups were administered by sublingual intravenous injection. Before the test, capillary magnification measurement method was used to measure the normal volume of the right hind foot of the rats in each group. To avoid errors, the measurement location was fixed and the operation was made by one person both before and after the administration. The average value of the two measurements was taken as the normal volume of the right hind foot of the rats before administration. […] The difference between the groups was compared by inter-group t test processing through the difference percentage (swelling ratio) of the paw volume before and after the induced rat inflammation.
# [2] = system: mice pain induced by acetic acid; experiment: Analgesic test, mice writhing induced by acetic acid; type: in vivo, Kunming mice; conditions: 200 mg/kg intragastric; within 15 min after 0.7% acetic acid
# Description: 72 Kunming mice were randomly divided into 6 groups, with 12 mice for each group. (1) the blank normal control group (i.e. saline group, […]); (2) positive drug aspirin group (200 mg/kg); (3) ibuprofen group (300 mg/kg); (4) high dose group of phillygenin ibuprofen ester (300 mg/kg); (5) medium dose group of phillygenin ibuprofen ester (150 mg/kg); (6) low dose group of phillygenin ibuprofen ester (75 mg/kg). […] The number of mice writhings within 15 min after administration was recorded. The number of writhings was taken as the evaluation index to evaluate the analgesic effect.
# [3] = system: Coxsackie virus A16 (CoxA16); experiment: Impact of the drugs on the virus-induced cytopathy (MTT); type: cell-based; conditions: CoxA16 100 TCID50, Vero cells, about the maximal non-cytotoxic concentration, 72 hours
# [4] = system: Herpes Simplex Virus type I (HSV-1); experiment: as above; type: cell-based; conditions: HSV-I 100 TCID50, Vero cells, about the maximal non-cytotoxic concentration, 72 hours
# Enterovirus EV71 = experiment: as above; type: cell-based; conditions: EV71 100 TCID50, Vero cells, about the maximal non-cytotoxic concentration, 72 hours
# Adenovirus (AdV) = experiment: as above; type: cell-based; conditions: ADV 100 TCID50, Vero cells, about the maximal non-cytotoxic concentration, 72 hours
# influenza virus [5] = type: in vivo, Kunming mice; conditions: lung suspensions, influenza virus infected mice; 58.5 mg/kg/d, 5 days
# [6] = system: respiratory syncytial virus (RSV); experiment: Impact of the drugs on the virus-induced cytopathy (MTT); type: cell-based; conditions: RSV 100 TCID50, Vero cells, about the maximal non-cytotoxic concentration, 72 hours
# [7] = system: coxsackie virus B3 (CVB3); experiment: as above; type: cell-based; conditions: CVB3 100 TCID50, Vero cells, about the maximal non-cytotoxic concentration, 72 hours
# parainfluenza virus [8] = type: in vivo, Kunming mice; conditions: lung suspensions, parainfluenza virus infected mice; 58.5 mg/kg/d, 5 days
# parainfluenza virus [9] = experiment: Impact of the drugs on the virus-induced cytopathy (MTT); type: cell-based; conditions: parainfluenza virus 100 TCID50, Vero cells, about the maximal non-cytotoxic concentration, 72 hours
# influenza virus [10] = experiment: as above; type: cell-based
# [11] = system: beer yeast induced rat fever; experiment: Beer yeast induced rat fever; type: in vivo, Wistar rats; conditions: 100 mg/kg
# Description: Male Wistar rats were selected, weighing 180-200 g. Before the test, WSC-411P portable digital thermometer was used to measure the normal rectal temperature twice (with certain interval for each time), and the average value of the two measurements was taken as the normal body temperature of the rat. Then 70 rats with the body temperature between 36.5° C. and 38° C. were chosen to be randomly divided into 7 groups by weight: the model (0.5% carboxymethylcellulose) group, the 2.5, 5, and 10 mg/kg phillygenin ibuprofen ester groups, the positive drug paracetamol (100 mg/kg) group, the ibuprofen group (i.e. prodrug control group, 300 mg/kg), the phillygenin group (100 mg/kg), with 10 rats for each group. Each group of rats were subjected to back subcutaneous injection with 10% fresh beer yeast suspension of 10 ml/kg to induce heat. After administration of 10% fresh beer yeast suspension for 6.0 h, phillygenin ibuprofen ester and paracetamol were both subjected to intragastric administration, and the model group was intragastrically administrated with equal volume of 0.5% carboxymethylcellulose. Rectal temperature was measured after 1 h, 2 h, 3 h and 4 h of the administration respectively. Changes in the body temperature were observed and difference between the groups was compared by inter-group t test processing through antipyretic percentage.
# [12] = system: rabbit fever induced by typhoid and paratyphoid vaccine; experiment: Rabbit fever induced by typhoid and paratyphoid vaccine; type: in vivo, Japanese white rabbits; conditions: 50 mg/kg
# Description: Japanese male big-ear white rabbits, weighing 1.5-2.0 kg. Before the test, WSC-411P portable digital thermometer was used to measure the normal rectal temperature twice (with certain interval for each time), and the average value was taken as the normal body temperature. Then 48 Japanese big-ear white rabbits with body temperature of 38-39.6° C. were selected and randomly divided into 8 groups by weight, namely: the blank control (normal saline) group, the model control (0.5% carboxymethylcellulose) group, the ibuprofen group (300 mg/kg), the phillygenin group (10 mg/kg), the 1.25, 2.5, and 5 mg/kg phillygenin ibuprofen ester groups and the positive drug paracetamol (50 mg/kg) group. The rabbits were fixed in a fixator. The blank control group was intravenously injected with normal saline of 1 ml/kg via the ear margin; The model control group and the drug groups were intravenously injected with typhoid and paratyphoid vaccines of 0.8 ml/kg via the ear margin. When the body temperature rise of the rabbits was greater than 1° C. (requiring about 1-1.5 h, which was restricted to 1 h in this test), the blank control group and the model group were administered intragastrically with 0.5% carboxymethycellulose of 1 ml/kg, and the drug groups were administered intragastrically with phillygenin ibuprofen ester and paracetamol. […]
# [13] = system: sweat secretion of rat paw part; experiment: Sweat secretion of rat paw part (coloring method); type: in vivo, Wistar rats; conditions: 35.0 mg/kg subcutaneous; for Animal number of sweat points of level +: + = sweat area below about 10%; for Animal number of sweat points of level ++: ++ = sweat area about 11-40%; for Animal number of sweat points of level +++: +++ = sweat area about 41-70%; for Animal number of sweat points of level ++++: ++++ = sweat area over 71%; for Animal number of sweat points of level −: − = no sweat point
# Description: This test was designed to observe the change of sweat secretion based on the mechanism that sweat gland is distributed on the rat paw pads, and iodine and starch can have purple reaction when encountered with sweat. In the test, 350 Wistar rats were selected, with equal male and female number, weighing 120-150 g. […] The rats were placed in a self-made rat fixation bag, with the double hind limbs exposed. The dirts on the right paw was gently scrubbed clean with the cotton swab dipped with anhydrous ethanol. Besides that subcutaneous injection was used for the pilocarpine solution, intragastric administration was used for all the other groups. […] When the test was complete, statistical process was carried out according to the rank-sum test with two-sample comparison, in order to compare the difference between the groups.
# [14] = system: sweat gland epithelial cells at the rat toe part; experiment: Sweat secretion of rat paw part (tissue morphology observation method); type: in vivo, Wistar rats; conditions: rat toe part; 35.0 mg/kg subcutaneous
# Description: This test was based on the mechanism that when rat sweat gland is excited, in addition to sweat secretion increase, the morphology of sweat gland epithelial cell is also changed. The number increase and expansion of empty cells of the sweat gland epithelial cells can be seen under the optical microscope. Such enlarged vacuole presents mitochondrial in sweat gland epithelial cells swelling, rupture, fusion and secretory vesicle enlargement under the electron microscope, and through the morphological observation of the sweat gland epithelial cell at the rat paw part, the secretory activity of the sweat gland can be known. In the test, 70 Wistar rats were selected, with equal male and female number, weighing 120-160 g. […] Besides that subcutaneous injection was used for the pilocarpine solution, intragastric administration was used for all the other groups.
# [15] = time after administration (min) 30
# [16] = time after administration (min) 60
# [17] = time after administration (min) 90
# [18] = time after administration (min) 120
# [19] = time after administration (min) 180
# [20] = after coating B liquid for 1 minute
# [21] = after coating B liquid for 5 minutes
# [22] = after coating B liquid for 10 minutes
# [23] = after coating B liquid for 15 minutes (Table 2-4)
# [24] = after coating B liquid for 15 minutes (Table 2-5)
compound,measurement,setting,value
CC(=O)Oc1ccccc1C(=O)O [Aspirin],Swelling ratio (%),[1]; 30 min,0.120 ± 0.138 %
same,Swelling ratio (%),[1]; 60 min,0.168 ± 0.172 %
same,Swelling ratio (%),[1]; 120 min,0.215 ± 0.178 %
same,Swelling ratio (%),[1]; 180 min,0.343 ± 0.337 %
same,Swelling ratio (%),[1]; 240 min,0.470 ± 0.289 %
same,Swelling ratio (%),[1]; 300 min,0.690 ± 0.369%
same,Swelling ratio (%),[1]; 360 min,0.525 ± 0.338 %
same,Writhing times,[2],5.0*
"NC(=O)c1ncn([C@@H]2O[C@H](CO)[C@@H](O)[C@H]2O)n1 [Ribavirin, ribavirin]",antiviral effective rate (ER %),[3],0.70%
same,antiviral effective rate (ER %),[4],60.92* %
same,antiviral effective rate (ER %),Enterovirus EV71,4.25%
same,antiviral effective rate (ER %),Adenovirus (AdV),0.43%
same,Hemagglutination titer (InX),influenza virus [5],21.91 ± 1.050
same,Hemagglutination titer Inhibitive rate (%),influenza virus [5],32.39%
same,antiviral effective rate (ER %),[6],50.08* %
same,antiviral effective rate (ER %),[7],13.44%
same,Hemagglutination titer (InX),parainfluenza virus [8],23.22 ± 1.091
same,Hemagglutination titer Inhibitive rate (%),parainfluenza virus [8],24.53%
same,antiviral effective rate (ER %),parainfluenza virus [9],81.56** %
same,antiviral effective rate (ER %),influenza virus [10],57.49* %
CC(=O)Nc1ccc(O)cc1 [Paracetamol],Body temperature (° C.),[11]; 1 h after administration,38.66 ± 0.58 °C
same,antipyretic percentage (%),[11]; 1 h after administration,−2.07 ± 0.54 %
same,Body temperature (° C.),[11]; 2 h after administration,38.19 ± 0.59 °C
same,antipyretic percentage (%),[11]; 2 h after administration,−3.27 ± 0.77 %
same,Body temperature (° C.),[11]; 3 h after administration,37.98 ± 0.19 °C
same,antipyretic percentage (%),[11]; 3 h after administration,−3.80 ± 1.43 %
same,Body temperature (° C.),[11]; 4 h after administration,37.84 ± 0.32 °C
same,antipyretic percentage (%),[11]; 4 h after administration,−4.15 ± 1.59 %
same,Body temperature (° C.),[12]; [15],40.53 ± 0.68 °C
same,antipyretic percentage (%),[12]; [15],−1.14 ± 0.59 %
same,Body temperature (° C.),[12]; [16],40.10 ± 0.48 °C
same,antipyretic percentage (%),[12]; [16],−2.18 ± 0.16 %
same,Body temperature (° C.),[12]; [17],39.83 ± 0.57 °C
same,antipyretic percentage (%),[12]; [17],−2.83 ± 0.16 %
same,Body temperature (° C.),[12]; [18],39.72 ± 0.54 °C
same,antipyretic percentage (%),[12]; [18],−3.11 ± 0.29 %
same,Body temperature (° C.),[12]; [19],39.61 ± 0.48 °C
same,antipyretic percentage (%),[12]; [19],−3.38 ± 0.25 %
CC[C@@H]1C(=O)OC[C@@H]1Cc1cncn1C [Pilocarpine],Animal number of sweat points of level +,[13]; [20],1
same,Animal number of sweat points of level ++,[13]; [20],3
same,Animal number of sweat points of level +++,[13]; [20],1
same,Animal number of sweat points of level ++++,[13]; [20],5
same,Animal number of sweat points of level −,[13]; [20],0
same,Animal number of sweat points of level +,[13]; [21],1
same,Animal number of sweat points of level ++,[13]; [21],2
same,Animal number of sweat points of level +++,[13]; [21],1
same,Animal number of sweat points of level ++++,[13]; [21],6
same,Animal number of sweat points of level −,[13]; [21],0
same,Animal number of sweat points of level +,[13]; [22],1
same,Animal number of sweat points of level ++,[13]; [22],2
same,Animal number of sweat points of level +++,[13]; [22],1
same,Animal number of sweat points of level ++++,[13]; [22],6
same,Animal number of sweat points of level −,[13]; [22],0
same,Animal number of sweat points of level +,[13]; [23],0
same,Animal number of sweat points of level ++,[13]; [23],2
same,Animal number of sweat points of level +++,[13]; [23],1
same,Animal number of sweat points of level ++++,[13]; [23],6
same,Animal number of sweat points of level −,[13]; [23],0
same,Animal number of sweat points of level +,[13]; [24],0
same,Animal number of sweat points of level ++,[13]; [24],2
same,Animal number of sweat points of level +++,[13]; [24],1
same,Animal number of sweat points of level ++++,[13]; [24],6
same,Animal number of sweat points of level −,[13]; [24],0
same,Number of sweat glands of vacuole,[14],57
same,Void fraction (%),[14],27.40*** %
